How the values were obtained:
[1] = Metabolic stability in mouse liver microsomes; format: in vitro ADME; details: pH 7.4
Method: Thermodynamic solubility was assessed by dissolving 2 to 3 mg of test compound to equilibrium in 100 mM KPO4-buffer, pH 7.4. The metabolic stability assay was performed in the presence of human and mouse liver microsomes by measurement of test compounds disappearance over time (60 min). The plasma protein binding assay, including stability estimation, was performed using the RED devices (Thermo Fisher Scientific) in the presence of human and mouse plasma. All samples from the in vitro ADME studies were quantified by liquid chromatography-triple quadrupole mass spectrometry (LC–MS/MS). The assays were performed as previously described ([36]) and the details are available in SI Appendix. Cytotoxicity was assessed by incubation of test compounds in the presence of HepG2 cells for 72 h as previously described ([37]). […]
The plate is then sealed, centrifuged and the supernatant is analysed by liquid
chromatography coupled to triple quadrupole mass spectrometry (LC-MS/MS).
Metabolic stability in the presence of human and animal liver microsomes. Metabolic stability
was determined in 0.5 mg/ml human or animal liver microsomes at a compound concentration
of 1 μM in 100 mM KPO4 buffer pH 7.4 in a total incubation volume of 500 μl. The reaction was
initiated by addition of 1 mM NADPH. At various incubation times, i.e. at 0, 5, 10, 20, 40 and 60
min, a sample was withdrawn from the incubation and the reaction was terminated by addition
of cold acetonitrile with warfarin as an internal standard. […]
Liquid chromatography coupled to triple quadrupole mass spectrometry (LC-MS/MS). The test
compounds were optimized on a Waters Acquity UPLC XEVO TQ-S micro system (Waters Corp.)
operating in multiple reaction monitoring (MRM) mode with positive or negative electrospray
ionization. Compounds were optimized by using the QuanOptimize software (Waters Corp.).
For chromatographic separation, a C18 BEH 1.7 µm column was used, with a general gradient of
1% to 90% of mobile phase B over a total running time of 2 min. Mobile phase A consisted of
5% acetonitrile and 0.1% formic acid in purified water, and mobile phase B of 0.1% formic acid
in 100% acetonitrile. The flow rate was set to 0.5 ml/min and 5 µL of the sample was injected.

E. coli LpxH = target: T1, E. coli LpxH (Escherichia coli, UniProt P43341); assay: MBP-AaLpxE-coupled LpxH activity assay (malachite green); format: biochemical; details: read-out: E. coli LpxH enzyme inhibition IC50
T1 construct: His6 (C); made in house; host or cells: E. coli BL21-AI (pET-26b(+), synthetic gene from GenScript)
Method: E. coli-optimized EcLpxH and KpLpxH sequences, cloned into a pET-26b(+) vector (Novagene) using NdeI/XhoI restriction sites, were ordered from GenScript Biotech (the Netherlands), giving constructs with a His6-tag at the C-terminal end, and bearing kanamycin resistance. Competent E. coli BL21-AI cells (Invitrogen) were transformed and grown at 37 °C in Luria broth containing 50 μg/mL kanamycin to an OD600 of 0.5 to 1.0, then induced for 2 to 3 h by adding IPTG and L-arabinose to final concentrations of 0.5 mM and of 2 mg/mL, respectively. Harvested cells were lysed in a One-Shot cell disrupter (Constant Systems Ltd., UK) in 20 mM Tris-HCl pH 8.0, 300 mM NaCl, 20 mM imidazole, 4 M urea, 5% (v/v) glycerol, 0.01 mg/mL RNase A and 0.02 mg/mL DNase, plus cOmplete, EDTA-free protease inhibitor cocktail (Roche). Proteins were purified using Ni-nitrilotriacetic acid agarose (Qiagen), HiTrap Heparin HP affinity chromatography (Cytiva), and HiLoad 16/60 Superdex 200 chromatography (Amersham Biosciences). Final samples were concentrated to 15 mg/mL protein and stored in aliquots in 20 mM Tris-HCl (pH 8.0) containing 300 mM NaCl and 2 mM DTT at −80 °C. Assays were performed essentially as described by ref. [26]. Additional assay details are available in SI Appendix.
Cloning, expression and purification of LpxHs. E. coli-optimized EcLpxH and KpLpxH sequences, cloned into a pET-26b(+) vector (Novagene) using NdeI/XhoI restriction sites, were ordered from GenScript Biotech (the Netherlands), giving constructs with a His6-tag at the C-terminal end, and bearing kanamycin resistance. The correctness of the sequences was verified by DNA sequencing. Competent E. coli BL21-AI cells (Invitrogen) were transformed with the resulting plasmids for protein production.
Cultures of 8 L of Luria broth containing 50 μg/mL kanamycin were grown at 37 °C to an OD600 of 0.5-1.0, then induced by adding IPTG to a final concentration of 0.5 mM and L-arabinose to a final concentration of 2 mg/ml. After 2-3 h of incubation at 37 °C, cells were harvested by centrifugation, and the pellet was resuspended in lysis buffer (20 mM Tris-HCl pH 8.0, 300 mM NaCl, 20 mM imidazole, 4 M urea, 5% (v/v) glycerol, 0.01 mg/mL RNase A and 0.02 mg/mL DNase, plus one tablet of cOmplete, EDTA-free cocktail protease inhibitor cocktail (Roche)).
Cells were lysed using a One-Shot cell disrupter (Constant Systems Ltd., UK). The lysate was spun down and the soluble fraction containing LpxH was incubated at 4 °C overnight with 1.5 mL pre-equilibrated Ni-nitrilotriacetic acid agarose (Qiagen) slurry using the same buffer. The column was then washed in steps of 30 column volumes with lysis buffer (without RNase A, DNase and protease inhibitor) containing 3, 2, 1, 0.5 and 0 M of urea. The protein was then eluted with eight column volumes of 500 mM imidazole in the same buffer. Fractions containing the desired protein as judged by SDS gels were pooled and purified on a HiTrap Heparin HP affinity column (Cytiva) (loading buffer 20 mM Tris-HCl, pH 8.0 and 5% glycerol, 2 mM DTT; elution buffer 20 mM Tris-HCl, pH 8.0 and 5% glycerol, 1 M NaCl, 2 mM DTT) and further applied to a HiLoad 16/60 Superdex 200 preparative grade column (Amersham Biosciences) pre-equilibrated with 20 mM Tris-HCl, pH 8.0, 300 mM NaCl, 5% glycerol, 2 mM
DTT. […]
for EcLpxH2 and KpLpxH, respectively, calculated using the ProtParam tool(1) were analyzed by SDS PAGE and stored in 20 mM Tris-HCl (pH 8.0) containing 300 mM NaCl and 2 mM DTT at -80 […]

T1 sequence (P43341 whole entry): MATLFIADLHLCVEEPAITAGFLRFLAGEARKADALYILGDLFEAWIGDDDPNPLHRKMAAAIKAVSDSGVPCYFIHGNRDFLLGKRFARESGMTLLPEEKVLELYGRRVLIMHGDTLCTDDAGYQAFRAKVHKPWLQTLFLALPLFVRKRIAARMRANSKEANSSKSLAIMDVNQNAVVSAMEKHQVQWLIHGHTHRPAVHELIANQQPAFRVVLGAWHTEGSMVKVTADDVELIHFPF

SMILES	microsomal CLint at 1 µM [1] [µL/min/mg]	IC50 (E. coli LpxH) [nM]
Cc1cc(C#N)nc(N2CCN(S(=O)(=O)c3ccc(NC(=O)c4ccccc4N(C)S(C)(=O)=O)cc3)CC2)n1 [EBL-3339]	625	1.5
CN(c1ccc(CNCCN)cc1C(=O)Nc1ccc(S(=O)(=O)N2CCN(c3cc(Cl)cc(Cl)c3)CC2)cc1)S(C)(=O)=O [EBL-3025]	31	3.4
Cc1cc(C#N)nc(N2CCN(S(=O)(=O)c3ccc(NC(=O)c4cc(CNCCCN)ccc4N(C)S(C)(=O)=O)cc3)CC2)n1.Cl.Cl [EBL-3599]	< 5	–
Cc1cc(C#N)nc(N2CCN(S(=O)(=O)c3ccc(NC(=O)c4cc(CN5CC(CN)C5)ccc4N(C)S(C)(=O)=O)cc3)CC2)n1 [EBL-3647]	< 5	–
CC(=O)N1CCc2cc(S(=O)(=O)N3CCN(c4cccc(C(F)(F)F)c4)CC3)ccc21 [AZ1, reference compound]	–	520
CN(c1ccccc1C(=O)Nc1ccc(S(=O)(=O)N2CCN(c3cccc(C(F)(F)F)c3)CC2)cc1)S(C)(=O)=O [JEDI-1444]	126	2.6
CN(c1ccccc1C(=O)Nc1ccc(S(=O)(=O)N2CCCCC2)cc1)S(C)(=O)=O [JEDI-852]	–	1300
